In patent US20220380314A1, “SUBSTITUTED, SATURATED AND UNSATURATED N-HETEROCYCLIC CARBOXAMIDES AND RELATED COMPOUNDS FOR THEIR USE IN THE TREATMENT OF MEDICAL DISORDERS” (Bial - R&D Investments, S.A., priority 2019, published 2022):
Converted amounts (≈) assume the structure as drawn. Counter-ions that a name gives are not always drawn.

Legend:
[1] = target: T1, acid ceramidase (hACR) (Homo sapiens, UniProt Q13510); test: Acid ceramidase inhibition, biochemical fluorescent assay with cell lysates overexpressing acid ceramidase, substrate Rbm14-12; conditions: cell lysates overexpressing acid ceramidase; 1 hr preincubation at RT; pH 4.5; substrate Rbm14-12 6.3 μM; read-out: hACR IC50
T1 construct: expressed in transfected cells; cell lysate used
T1 sequence (Q13510 143-395 limits assumed): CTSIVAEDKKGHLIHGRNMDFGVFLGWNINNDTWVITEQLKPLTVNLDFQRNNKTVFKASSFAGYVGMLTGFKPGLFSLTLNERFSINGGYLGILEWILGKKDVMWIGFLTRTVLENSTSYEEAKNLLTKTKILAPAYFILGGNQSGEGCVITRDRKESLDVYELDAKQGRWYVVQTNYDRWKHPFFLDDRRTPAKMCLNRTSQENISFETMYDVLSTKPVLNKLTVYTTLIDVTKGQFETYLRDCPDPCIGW
T1 sequence (Q13510 22-142 limits assumed): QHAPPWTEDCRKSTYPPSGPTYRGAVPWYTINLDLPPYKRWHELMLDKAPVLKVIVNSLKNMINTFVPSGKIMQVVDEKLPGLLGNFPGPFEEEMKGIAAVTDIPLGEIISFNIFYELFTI
Method: The ability of exemplary compounds to inhibit acid ceramidase was measured.
Cell lysates overexpressing acid ceramidase were used as the enzyme source for compound potency determination in a biochemical fluorescent assay. Briefly, compounds were preincubated with 10 µg protein of cell lysates in a dose-response manner for 1 hr at RT in the assay buffer containing 25 mM NaAC and 100 mM NaCl, pH 4.5. The reaction was initiated by the addition of substrate Rbm14-12 at a final concentration of 6.3 μM. The reaction was run at RT for 1 hr before it was stopped by the addition of the stopping buffer containing 20% methanol (v/v), 1 mg/ml NaIO4, 0.1 M glycine, pH 10.6. The samples were incubated with the stopping buffer at RT for 1 hr to allow the fluorescent product to be formed. Finally the plate was read with SpectraMax i3 plate reader (Molecular Devices) at ex360 nm and em446 nm. Data were collected and used to determine the IC50 values of compounds by curve fitting to the four-parameter inhibition equation.
The symbol “A” indicates inhibition of less than 0.2 μM; the symbol “B” indicates inhibition in the range of 0.2 μM up to 1 μM; and the symbol “C” indicates inhibition of greater than 1 μM.

[2] = Compound solubility in water; type: physicochemical

IC50 [1]	solubility [2]	SMILES
200 to 1000 nM	33.2 µM (≈ 13.5 µg/mL)	CN1CCC(c2ccc3c(c2)N(C(=O)NCCc2ccccc2)C(C)(C)CC3)CC1 [Example 1, 2,2-Dimethyl-7-(1-methylpiperidin-4-yl)-N-phenethyl-3,4-dihydroquinoline-1(2H)-carboxamide]
< 200 nM	36.5 µM (≈ 14.8 µg/mL)	CN1CCC(c2cccc3c2CCC(C)(C)N3C(=O)NCCc2ccccc2)CC1 [Example 2, 2,2-Dimethyl-5-(1-methylpiperidin-4-yl)-N-phenethyl-3,4-dihydroquinoline-1(2H)-carboxamide]
200 to 1000 nM	3.2 µM (≈ 0.987 µg/mL)	CC1(C)CCc2ccccc2N1C(=O)NCCc1ccccc1 [Example 6, 2,2-Dimethyl-N-phenethyl-3,4-dihydroquinoline-1(2H)-carboxamide]
200 to 1000 nM	6.7 µM (≈ 2.17 µg/mL)	CN1CC(C)(C)N(C(=O)NCCc2ccccc2)c2ccccc21 [Example 7, 2,2,4-Trimethyl-N-phenethyl-3,4-dihydroquinoxaline-1(2H)-carboxamide]
> 1000 nM	27.4 µM (≈ 8.48 µg/mL)	CC1(C)CCc2cccnc2N1C(=O)NCCc1ccccc1 [Example 8, 2,2-Dimethyl-N-phenethyl-3,4-dihydro-1,8-naphthyridine-1(2H)-carboxamide]
> 1000 nM	25.2 µM (≈ 7.8 µg/mL)	CC1(C)CCc2ncccc2N1C(=O)NCCc1ccccc1 [Example 9, 2,2-Dimethyl-N-phenethyl-3,4-dihydro-1,5-naphthyridine-1(2H)-carboxamide]
> 1000 nM	6.7 µM (≈ 2.64 µg/mL)	CC1(C)CCc2ccc(N3CCOCC3)cc2N1C(=O)NCCc1ccccc1 [Example 10, 2,2-Dimethyl-7-morpholino-N-phenethyl-3,4-dihydroquinoline-1(2H)-carboxamide]
–	28.7 µM (≈ 7.53 µg/mL)	COCCNC(=O)N1c2ccccc2CCC1(C)C [Example 32, N-(2-Methoxyethyl)-2,2-dimethyl-3,4-dihydroquinoline-1(2H)-carboxamide]
–	33.4 µM (≈ 9.7 µg/mL)	COC1CCN(C(=O)NCCc2ccccc2)C(C)(C)C1 (stereo not shown) [Example 36, 4-Methoxy-2,2-dimethyl-N-phenethylpiperidine-1-carboxamide]
< 200 nM	–	CN1CC(C)(C)N(C(=O)NCCCCc2ccccc2)CC1c1ccccc1 (stereo not shown) [Example 166, 2,2,4-Trimethyl-5-phenyl-N-(4-phenylbutyl)piperazine-1-carboxamide]

Second part, the molecule before the results:

SMILES	IC50 [1]	solubility [2]
CN1CCC(c2ccc3c(c2)N(C(=O)NCCc2ccccc2)CCC3)CC1 [Example 3, 7-(1-Methylpiperidin-4-yl)-N-phenethyl-3,4-dihydroquinoline-1(2H)-carboxamide]	> 1000 nM	38.7 µM (≈ 14.6 µg/mL)
CCCCCNC(=O)N1C(c2ccc(F)c(F)c2)COCC1(C)C (stereo not shown) [Example 162, 5-(3,4-Difluorophenyl)-3,3-dimethyl-N-pentylmorpholine-4-carboxamide]	< 200 nM	–
CCCCCNC(=O)N1C(c2ccc(F)c(OC)c2)COCC1(C)C (stereo not shown) [Example 163, 5-(4-Fluoro-3-methoxyphenyl)-3,3-dimethyl-N-pentylmorpholine-4-carboxamide]	< 200 nM	–
CC1(C)CN(C(=O)OCc2ccccc2)CC(c2ccccc2)N1C(=O)NCCCCc1ccccc1 (stereo not shown) [Example 164, Benzyl 3,3-dimethyl-5-phenyl-4-(4-phenylbutylcarbamoyl)piperazine-1-carboxylate]	> 1000 nM	–
CCCCCNC(=O)N1C(c2ccc(F)cc2)CN(C)CC1(C)C (stereo not shown) [Example 167, 6-(4-Fluorophenyl)-2,2,4-trimethyl-N-pentylpiperazine-1-carboxamide hydrochloride]	< 200 nM	–
CN1CC(c2ccc(F)cc2)N(C(=O)NCCOCC2CC2)C(C)(C)C1 (stereo not shown) [Example 168, N-[2-(Cyclopropylmethoxy)ethyl]-6-(4-fluorophenyl)-2,2,4-trimethylpiperazine-1-carboxamide hydrochloride]	< 200 nM	–
CC1(C)CN(C2CC2)CC(c2ccccc2)N1C(=O)NCCCCc1ccccc1 (stereo not shown) [Example 169, 4-Cyclopropyl-2,2-dimethyl-6-phenyl-N-(4-phenylbutyl)piperazine-1-carboxamide]	< 200 nM	–
